The values below come from US10633407B2, “14-membered ketolides and methods of their preparation and use” (President and Fellows of Harvard College, priority 2014, dated 2020).

In brackets after ≈: the same amount, converted by molar mass.

Assay in all cases: CLSI broth dilution MIC determination
What all share (assay type): cell-based
A general note: In broth dilution the organism is exposed to a series of concentrations in liquid medium.

The test system of experiment [1] is K. pneumoniae MP-548 clinical. Particulars: Klebsiella pneumoniae, MP548CLINICAL, read-out: MIC.
The test system of experiment [2] is P. aeruginosa MP-8 PAO1:mex (mex-oprM-deletion). The conditions noted are these: Pseudomonas aeruginosa, PAO1.
Experiment [3] deals with K. pneumoniae MP-546 Clinical-MDR. Particulars: Klebsiella pneumoniae, read-out: MIC.
For experiment [4], the system named is A. baumannii MP-577 Clinical-AZT low. The conditions noted are these: Acinetobacter baumannii, read-out: MIC.
Experiment [5] concerns A. baumannii MP-576 Clinical-MDR. The conditions noted are these: Acinetobacter baumannii, read-out: MIC.
Experiment [6] deals with A. baumannii ATCC 19606. Particulars: Acinetobacter baumannii, ATCC19606; A. baumannii ATCC 19606 (MP-15); read-out: MIC.
In experiment [7] the test system is K. pneumoniae ATCC 10031. The conditions noted are these: Klebsiella pneumoniae, ATCC10031, K. pneumoniae ATCC 10031 (MP-14); read-out: MIC.
The test system of experiment [8] is S. aureus MRSA: USA300. Particulars: Staphylococcus aureus; S. aureus MRSA: USA300 (MP-549, msr(a)); read-out: MIC. The source says: (§1) MIC data was collected for the novel macrolides that this platform has produced against over 21 unique strains of B. subtilis, E. coli, S. aureus, S. pneumoniae, and H. influenzae, including several multidrug-resistant strains, with a special focus on macrolide resistant mechanisms (vide supra). Azithromycin (Azithro) and Solithromycin (Solithro) were included as a control macrolides in many cases. CLSI standard procedures for broth dilution MIC determination were used. […] These genotypes can be constitutive or inducible.

The subject of experiment [9] is E. coli MP-9 ATCC25922:tolC. Particulars: Escherichia coli, ATCC25922.
Excerpt: as §1

Experiment [10] relates to S. aureus (MRSA) MP-513 ST-228 cErm (Clinical-cErm). The conditions noted are these: Staphylococcus aureus, read-out: MIC.
Excerpt: as §1

Experiment [11] relates to S. aureus MP-17 ATCCBAA-977 (BAA 977 iErm). The conditions noted are these: Staphylococcus aureus; S. aureus MP-17, ATCCBAA-977, iErm; read-out: MIC.
Excerpt: as §1

Experiment [12] relates to E. coli ATCC 25922. Particulars: Escherichia coli, ATCC25922, E. coli ATCC 25922 (MP-4); read-out: MIC.
Excerpt: as §1

Experiment [13] has as its system E. coli MP-532 clinical-cErmB. The conditions noted are these: Escherichia coli.
Excerpt: as §1

The subject of experiment [14] is E. coli MP-541 clinical. Particulars: Escherichia coli, MP541CLINICAL, read-out: MIC.
Excerpt: as §1

For experiment [15], the system named is S. aureus ATCC 29213. The conditions noted are these: Staphylococcus aureus, ATCC29213; S. aureus ATCC 29213 (MP-12); read-out: MIC.
Excerpt: as §1

Experiment [16] deals with P. aeruginosa MP-7 PAO1. Particulars: Pseudomonas aeruginosa, read-out: MIC.
The test system of experiment [17] is P. aeruginosa ATCC 27853. The conditions noted are these: Pseudomonas aeruginosa, ATCC27853; P. aeruginosa ATCC 27853 (MP-3); read-out: MIC.

Consider `CC[C@H]1OC(=O)[C@@](C)(F)C(=O)[C@H](C)[C@@H](O[C@@H]2OC(C)CC(N(C)C)C2O)[C@](C)(OC)C[C@@H](C)C(=O)[C@H](C)[C@H]2N(CC#CCn3cc(-c4ccnc(N)n4)nn3)C(=O)O[C@]12C` (some centres unmarked) [FSM-22748], for which the minimal inhibitory concentration (MIC) was 64 µg/mL (≈ 75.9 µM) in experiment [1]; 16 µg/mL (≈ 19 µM) in [2]; over 64 µg/mL in [3]; 32 µg/mL (≈ 38 µM) in experiment [4]; over 64 µg/mL in [5]; 16 µg/mL (≈ 19 µM) in [6]. The MIC in experiment [7] was 8 µg/mL (≈ 9.49 µM); in [8], 0.25 µg/mL (≈ 0.297 µM); in experiment [9], 4 µg/mL (≈ 4.75 µM); in experiment [10], over 64 µg/mL; in [11], 0.25 µg/mL (≈ 0.297 µM); in experiment [12], 16 µg/mL (≈ 19 µM). Besides, the MIC in experiment [13] was over 64 µg/mL; in experiment [14], 16 µg/mL (≈ 19 µM); in experiment [15], 0.25 µg/mL (≈ 0.297 µM); in experiment [16], 64 µg/mL (≈ 75.9 µM); in experiment [17] it was 64 µg/mL (≈ 75.9 µM).
For `CC[C@H]1OC(=O)[C@@](C)(F)C(=O)[C@H](C)[C@@H](O[C@@H]2OC(C)CC(N(C)C)C2O)[C@](C)(OC)C[C@@H](C)C(=O)[C@H](C)[C@H]2N(CC#CCn3cc(-c4cncc(N)n4)nn3)C(=O)O[C@]12C` (some centres unmarked) [FSM-22747], the MIC in experiment [1] was over 64 µg/mL; in [2], 16 µg/mL (≈ 19 µM); in [3] it was over 64 µg/mL; in experiment [4], 32 µg/mL (≈ 38 µM); in experiment [5] it was over 64 µg/mL; in experiment [6] it was 16 µg/mL (≈ 19 µM). Besides, the minimum inhibitory concentration (MIC) is 8 µg/mL (≈ 9.49 µM) in experiment [7]; 0.5 µg/mL (≈ 0.593 µM) in [8]; 4 µg/mL (≈ 4.75 µM) in [9]; over 64 µg/mL in experiment [10]; 0.25 µg/mL (≈ 0.297 µM) in [11]; 32 µg/mL (≈ 38 µM) in experiment [12]. Moreover, the MIC in experiment [13] was over 64 µg/mL; in experiment [14] it was 32 µg/mL (≈ 38 µM); in [15], 0.25 µg/mL (≈ 0.297 µM); in experiment [16] it was over 64 µg/mL; in experiment [17], over 64 µg/mL.
With `CC[C@H]1OC(=O)[C@@](C)(F)C(=O)[C@H](C)[C@@H](O[C@@H]2OC(C)CC(N(C)C)C2O)[C@](C)(OC)C[C@@H](C)C(=O)[C@H](C)[C@H]2N(CC#CCn3cc(-c4cnccn4)nn3)C(=O)O[C@]12C` (some centres unmarked) [FSM-22746], the MIC in experiment [1] was over 64 µg/mL; in [2], 16 µg/mL (≈ 19.3 µM); in experiment [3], over 64 µg/mL; in [4] it was 64 µg/mL (≈ 77.3 µM); in experiment [5], over 64 µg/mL; in experiment [6] it was 16 µg/mL (≈ 19.3 µM). Also, the MIC in experiment [7] was 8 µg/mL (≈ 9.66 µM); in experiment [8], 0.5 µg/mL (≈ 0.604 µM); in [9] it was 4 µg/mL (≈ 4.83 µM); in experiment [10] it was over 64 µg/mL; in experiment [11], 0.25 µg/mL (≈ 0.302 µM); in experiment [12], 32 µg/mL (≈ 38.6 µM). Besides, the MIC is over 64 µg/mL in experiment [13]; 64 µg/mL (≈ 77.3 µM) in experiment [14]; 0.25 µg/mL (≈ 0.302 µM) in experiment [15]; over 64 µg/mL in [16]; over 64 µg/mL in experiment [17].
On to `CC[C@H]1OC(=O)[C@H](C)C(=O)[C@H](C)[C@@H](O[C@@H]2OC(C)CC(N(C)C)C2O)[C@](C)(OC)C[C@@H](C)C(=O)[C@H](C)[C@H]2N(NC/C=C/c3ccnc4ccccc34)C(=O)O[C@]12C` (some centres unmarked) [FSM-140135], for which the MIC in experiment [1] is over 64 µg/mL; in experiment [2] it was 32 µg/mL (≈ 40.3 µM); in [3], over 64 µg/mL; in experiment [4], over 64 µg/mL; in [5], over 64 µg/mL; in [6], over 64 µg/mL. The MIC was 8 µg/mL (≈ 10.1 µM) in [7]; 2 µg/mL (≈ 2.52 µM) in [8]; 16 µg/mL (≈ 20.1 µM) in experiment [9]; over 64 µg/mL in experiment [10]; 2 µg/mL (≈ 2.52 µM) in experiment [11]; over 64 µg/mL in [12]. In addition, the MIC in experiment [13] was over 64 µg/mL; in [14], over 64 µg/mL; in experiment [15] it was 2 µg/mL (≈ 2.52 µM); in experiment [16], over 64 µg/mL; in experiment [17], over 64 µg/mL.

A word on the MIC: it is the smallest concentration in the dilution series that meets the test's criterion for growth inhibition.
